{"source": "patent US20220023289A1", "about": "“Application Of Pyrroloquinoline Quinone In Preparation Of Medicament Used For Preventing And Treating Acute Altitude Sickness And Acute Altitude Hypoxia Injury” (priority 2018, published 2022)", "key": {"[1]": {"system": "rats exposed to acute altitude hypoxia", "assay": "Liver function of rats exposed to acute altitude hypoxia", "assay_type": "in vivo, Wistar rat", "experimental": "Select healthy Wistar rats weight 160-200 g, half female and half male. After feeding for 3 days, these Wistar rats are randomly divided into ten groups according to their body weight, each group has 16±2 rats. The groups are divided as follows: five groups of the hypoxic exposure drug test group, respectively, are given 0.91 mg/kg, 1.83 mg/kg, 3.66 mg/kg, 7.31 mg/kg, and 14.63 mg/kg drugs. […] After continuous intragastric administration for 7 days, the animals in the hypoxic exposure group are simultaneously put into the decompression and hypoxia compound experimental chamber, the hatch is closed, and the pressure is reduced at a speed of 10 m/s. After being raised to an altitude of 6000 m and maintained for 8 hours, the speed in 10 m/s drops is reduced to normal altitude, open the hatch, and then take out the animal, collect blood samples (after standing for 1 hour, the supernatant is centrifuged and stored at −20° C.), and liver tissue samples. Detection indicator includes body weight, serum blood glucose, ATP, lactic acid, endothelin, nitric oxide, SOD, CO, MDA related to oxidative stress, and total protein, albumin, triglycerides, total cholesterol, high-density lipoprotein cholesterol, low-density lipoprotein cholesterol, glutamic pyruvic transaminase, total bilirubin, gluamic oxalacetic transaminase, serum urea nitrogen, creatinine, uric acid, lactate dehydrogenase, creatine kinase, α-hydroxybutyrate dehydrogenase; liver ATP, hepatic glycogen. Except that the formal oxygen control animal group is not put into the decompression and hypoxia compound experimental chamber, other experimental conditions and detection indicators are the same.\nMeasure blood glucose, total protein, albumin, triglycerides, total cholesterol, high-density lipoprotein cholesterol, low-density lipoprotein cholesterol, glutamic-pyruvic transaminase, total bilirubin, glutamic oxalacetic transaminase, serum urea nitrogen, creatinine, uric acid, lactate dehydrogenase, creatine kinase, α-hydroxybutyrate dehydrogenase, blood homocysteine by using an automatic blood biochemical analyzer."}, "[2]": {"assay": "Body weight of male mice in exhaustive swimming experiment", "details": "0.16 g/kg", "experimental": "Select healthy male Kunming mice weight 18-22 g. After feeding for 3 days, they are randomly divided into seven groups according to their body weight, each group has 10±1 mice. The groups are divided as follows: 5 groups of the drug test group, respectively, are given 1.32 mg/kg, 2.64 mg/kg, 5.28 mg/kg, 10.56 mg/kg, and 21.12 mg/kg drugs by gavage administration. […] After administration for 7 days, select an exhaustive swimming experiment under hypoxic conditions perform physical work ability evaluation; the observation index is an exhaustive swimming time. In the decompression and hypoxia compound laboratory chamber, decompression hypoxia is performed to an altitude of 6000 m, the swimming box is filled with water at a depth of 40 cm and the water temperature is 25° C. The animal is placed in the swimming box, and use a stopwatch to record a time from the start of swimming to exhaustion of the animal. Exhaustive swimming time is the time when an animal still cannot surface for 9 s after sinking."}, "[3]": {"system": "rats with acute altitude hypoxia injury", "assay": "Serum energy metabolism indexes (ATP, lactic acid) in rats with acute altitude hypoxia injury", "assay_type": "in vivo, Wistar rat", "description": "Determination of adenosine triphosphate (ATP): Perform enzyme-linked immunosorbent assay by double-antibody one-step sandwich method. To the coated microwells pre-coated with rat adenosine triphosphate (ATP) capture antibody, add in sequence the specimens, standard, and HRP-labeled detection antibody, and then incubate and wash thoroughly. Use a substrate TMB for color development, TMB is converted into blue under the catalysis of peroxidase and converted into the final yellow color under the action of acid. The color intensity is positively correlated with the rat adenosine triphosphate (ATP) in the sample. […] Determination of lactic acid (LC): Perform enzyme-linked immunosorbent assay by double-antibody one-step sandwich method. To the coated microwells pre-coated with rat lactic acid (LC) capture antibody, add in sequence the specimens, standard, and HRP-labeled detection antibody, and then incubate and wash thoroughly. Use a substrate TMB for color development. TMB is converted into blue under the catalysis of peroxidase and converted into the final yellow color under the action of acid. The color intensity is positively correlated with the rat lactic acid (LC) in the sample."}, "[4]": {"details": "female rats, hypoxia, 0.11 g/kg"}, "[5]": {"details": "female rats, normoxia, 0.11 g/kg"}, "[6]": {"details": "female rats, hypoxia, 0.91 mg/kg"}, "[7]": {"details": "female rats, hypoxia, 1.83 mg/kg"}, "[8]": {"details": "female rats, hypoxia, 3.66 mg/kg"}, "[9]": {"details": "female rats, hypoxia, 7.31 mg/kg"}, "[10]": {"details": "female rats, hypoxia, 14.63 mg/kg"}, "[11]": {"details": "female rats, normoxia, 3.66 mg/kg"}, "[12]": {"details": "male rats, hypoxia, 14.63 mg/kg"}}, "data": [{"smiles": "CC(=O)Nc1nnc(S(N)(=O)=O)s1", "note": "[Acetazolamide, reference compound]", "values": [{"measurement": "Glutamic oxalacetic transaminase", "setting": "[1]; [4]", "result": "73.20 ± 11.19", "unit": "U"}, {"measurement": "Glutamic-pyruvic transaminase", "setting": "[1]; [4]", "result": "28.40 ± 2.30", "unit": "U"}, {"measurement": "effect on glutamic-pyruvic transaminase and glutamic oxalacetic transaminase", "setting": "[1]; female rats, normoxia", "result": "no significant effects"}, {"measurement": "Glutamic oxalacetic transaminase", "setting": "[1]; [5]", "result": "102.33 ± 11.02", "unit": "U"}, {"measurement": "Glutamic-pyruvic transaminase", "setting": "[1]; [5]", "result": "41.67 ± 10.97", "unit": "U"}, {"measurement": "effect on glutamic pyruvic transaminase and total bilirubin", "setting": "[1]; hypoxia exposed male rats", "result": "no significant effects"}, {"measurement": "effect on serum glutamic oxalacetic transaminase", "setting": "[1]; hypoxia exposed male rats", "result": "increasing"}, {"measurement": "Glutamic oxalacetic transaminase", "setting": "[1]; male rats, hypoxia, 0.11 g/kg", "result": "77.57 ± 6.80", "unit": "U"}, {"measurement": "Glutamic-pyruvic transaminase", "setting": "[1]; male rats, hypoxia, 0.11 g/kg", "result": "44.00 ± 3.56", "unit": "U"}, {"measurement": "Total bilirubin", "setting": "[1]; male rats, hypoxia, 0.11 g/kg", "result": "0.15 ± 0.16", "unit": "µmol/L"}, {"measurement": "body weight male 1 day", "setting": "[2]", "result": "21.28 ± 1.38", "unit": "g"}, {"measurement": "body weight male 7 days", "setting": "[2]", "result": "23.05 ± 4.41", "unit": "g"}, {"measurement": "serum Lactic acid", "setting": "[3]; [4]", "result": "132.16 ± 10.42", "unit": "ng/L"}, {"measurement": "effect on serum ATP and lactic acid content", "setting": "[3]; female rats, last sentence of b195 (normoxia per Table 37)", "result": "reducing"}, {"measurement": "serum Lactic acid", "setting": "[3]; [5]", "result": "100.54 ± 7.13", "unit": "ng/L"}, {"measurement": "effect on serum ATP and lactic acid content", "setting": "[3]; hypoxia exposed female rats", "result": "no significant effects"}, {"measurement": "effect on serum ATP", "setting": "[3]; male rats", "result": "no significant effects"}, {"measurement": "effect on serum lactic acid content", "setting": "[3]; male rats", "result": "reducing"}, {"measurement": "serum Lactic acid", "setting": "[3]; male rats, hypoxia, 0.11 g/kg", "result": "161.46 ± 6.94", "unit": "ng/L"}]}, {"smiles": "O=C(O)c1cc(C(=O)O)c2c(n1)C(=O)C(=O)c1cc(C(=O)O)[nH]c1-2", "note": "[PQQ, pyrroloquinoline quinone]", "values": [{"measurement": "effect on serum glutamic-pyruvic transaminase and glutamic oxalacetic transaminase activities", "setting": "[1]; acute hypoxia exposed female rats", "result": "has been not found"}, {"measurement": "Glutamic oxalacetic transaminase", "setting": "[1]; [6]", "result": "80.71 ± 12.49", "unit": "U"}, {"measurement": "Glutamic-pyruvic transaminase", "setting": "[1]; [6]", "result": "29.86 ± 4.30", "unit": "U"}, {"measurement": "Glutamic oxalacetic transaminase", "setting": "[1]; [7]", "result": "84.71 ± 18.97", "unit": "U"}, {"measurement": "Glutamic-pyruvic transaminase", "setting": "[1]; [7]", "result": "27.86 ± 6.28", "unit": "U"}, {"measurement": "Glutamic oxalacetic transaminase", "setting": "[1]; [8]", "result": "82.29 ± 17.75", "unit": "U"}, {"measurement": "Glutamic-pyruvic transaminase", "setting": "[1]; [8]", "result": "32.57 ± 5.35", "unit": "U"}, {"measurement": "Glutamic oxalacetic transaminase", "setting": "[1]; [9]", "result": "79.29 ± 16.06", "unit": "U"}, {"measurement": "Glutamic-pyruvic transaminase", "setting": "[1]; [9]", "result": "32.57 ± 6.37", "unit": "U"}, {"measurement": "Glutamic oxalacetic transaminase", "setting": "[1]; [10]", "result": "83.00 ± 20.18", "unit": "U"}, {"measurement": "Glutamic-pyruvic transaminase", "setting": "[1]; [10]", "result": "36.57 ± 8.52", "unit": "U"}, {"measurement": "effect on aspartate aminotransferase activity", "setting": "[1]; female rats, normoxia", "result": "slightly increasing"}, {"measurement": "effect on glutamic-pyruvic transaminase", "setting": "[1]; female rats, normoxia", "result": "no significant effect"}, {"measurement": "Glutamic oxalacetic transaminase", "setting": "[1]; [11]", "result": "120.29 ± 11.90", "unit": "U"}, {"measurement": "Glutamic-pyruvic transaminase", "setting": "[1]; [11]", "result": "37.14 ± 4.45", "unit": "U"}, {"measurement": "effect on serum glutamic-pyruvic transaminase, glutamic oxalacetic transaminase and total bilirubin", "setting": "[1]; male rats exposed to acute hypoxia", "result": "is not found"}, {"measurement": "Glutamic oxalacetic transaminase", "setting": "[1]; male rats, hypoxia, 0.91 mg/kg", "result": "79.17 ± 15.66", "unit": "U"}, {"measurement": "Glutamic-pyruvic transaminase", "setting": "[1]; male rats, hypoxia, 0.91 mg/kg", "result": "36.63 ± 8.30", "unit": "U"}, {"measurement": "Total bilirubin", "setting": "[1]; male rats, hypoxia, 0.91 mg/kg", "result": "0.51 ± 0.12", "unit": "µmol/L"}, {"measurement": "Glutamic oxalacetic transaminase", "setting": "[1]; male rats, hypoxia, 1.83 mg/kg", "result": "85.80 ± 13.80", "unit": "U"}, {"measurement": "Glutamic-pyruvic transaminase", "setting": "[1]; male rats, hypoxia, 1.83 mg/kg", "result": "40.63 ± 5.18", "unit": "U"}, {"measurement": "Total bilirubin", "setting": "[1]; male rats, hypoxia, 1.83 mg/kg", "result": "0.59 ± 0.12", "unit": "µmol/L"}, {"measurement": "Glutamic oxalacetic transaminase", "setting": "[1]; male rats, hypoxia, 3.66 mg/kg", "result": "99.00 ± 15.52", "unit": "U"}, {"measurement": "Glutamic-pyruvic transaminase", "setting": "[1]; male rats, hypoxia, 3.66 mg/kg", "result": "42.50 ± 4.93", "unit": "U"}, {"measurement": "Total bilirubin", "setting": "[1]; male rats, hypoxia, 3.66 mg/kg", "result": "0.60 ± 0.15", "unit": "µmol/L"}, {"measurement": "Glutamic oxalacetic transaminase", "setting": "[1]; male rats, hypoxia, 7.31 mg/kg", "result": "94.40 ± 12.28", "unit": "U"}, {"measurement": "Glutamic-pyruvic transaminase", "setting": "[1]; male rats, hypoxia, 7.31 mg/kg", "result": "43.13 ± 8.92", "unit": "U"}, {"measurement": "Total bilirubin", "setting": "[1]; male rats, hypoxia, 7.31 mg/kg", "result": "0.46 ± 0.15", "unit": "µmol/L"}, {"measurement": "Glutamic oxalacetic transaminase", "setting": "[1]; [12]", "result": "109.00 ± 11.68", "unit": "U"}, {"measurement": "Glutamic-pyruvic transaminase", "setting": "[1]; [12]", "result": "48.25 ± 8.86", "unit": "U"}, {"measurement": "Total bilirubin", "setting": "[1]; [12]", "result": "0.53 ± 0.15", "unit": "µmol/L"}, {"measurement": "serum Lactic acid", "setting": "[3]; [6]", "result": "222.06 ± 12.56", "unit": "ng/L"}, {"measurement": "serum Lactic acid", "setting": "[3]; [7]", "result": "221.04 ± 14.36", "unit": "ng/L"}, {"measurement": "serum Lactic acid", "setting": "[3]; [8]", "result": "242.8 ± 8.13", "unit": "ng/L"}, {"measurement": "serum Lactic acid", "setting": "[3]; [9]", "result": "196.41 ± 11.86", "unit": "ng/L"}, {"measurement": "serum Lactic acid", "setting": "[3]; [10]", "result": "173.09 ± 24.20", "unit": "ng/L"}, {"measurement": "effect on serum ATP content", "setting": "[3]; female rats, normoxia", "result": "no significant effect"}, {"measurement": "effect on serum lactic acid content", "setting": "[3]; female rats, normoxia", "result": "reducing"}, {"measurement": "serum Lactic acid", "setting": "[3]; [11]", "result": "116.73 ± 13.32", "unit": "ng/L"}, {"measurement": "effect on serum ATP and lactic acid content", "setting": "[3]; hypoxia exposed female rats", "result": "increasing"}, {"measurement": "effect on serum ATP and lactic acid content", "setting": "[3]; male rats", "result": "no significant effects"}, {"measurement": "serum Lactic acid", "setting": "[3]; male rats, hypoxia, 0.91 mg/kg", "result": "188.70 ± 29.68", "unit": "ng/L"}, {"measurement": "serum Lactic acid", "setting": "[3]; male rats, hypoxia, 1.83 mg/kg", "result": "177.33 ± 19.55", "unit": "ng/L"}, {"measurement": "serum Lactic acid", "setting": "[3]; male rats, hypoxia, 3.66 mg/kg", "result": "189.12 ± 24.64", "unit": "ng/L"}, {"measurement": "serum Lactic acid", "setting": "[3]; male rats, hypoxia, 7.31 mg/kg", "result": "172.64 ± 12.25", "unit": "ng/L"}, {"measurement": "serum Lactic acid", "setting": "[3]; [12]", "result": "180.81 ± 24.64", "unit": "ng/L"}]}]}
